Entries after “also recorded” stand apart in the source; their conditions may differ.
Tests used:
anesthetized dogs = assay: Hemodynamic activity in anesthetized dogs; format: in vivo, dog; settings: 10 mg/Kg/hr; vehicle DMSO (Saline for 44-46)
Method: Compounds 3, 41, 43-48, 51 were tested in anesthetized dogs for hemodynamic activities including cardiac output, stroke volume and heart rate. For management of low perfusion states such as cardiovascular shock and congestive heart failure, it is desirable to have increased cardiac output and increased stroke volume accompanied by a decrease or no change in heart rate.
% CHANGE OF CARDIAC OUTPUT, STROKE VOLUME AND HEART RATE AT 10 mg/Kg/hr

[1] = Solubility noted in the PDE test (Insoluble); format: physicochemical; settings: compound not tested for PDE inhibition
Method: With respect to the compounds which are indicated in Tables I, II and III as being insoluble, although such compounds have not undergone the inhibitory test of Example XVI, due to the similarity in structure to compounds which were tested, it is expected that in vivo testing of the compounds in forms other than solution will readily indicate phosphodiesterase enzyme inhibitory capability.

[2] = tested on: phosphodiesterase enzymes; settings: background; cited from earlier work
rats [3] = assay: Hypotensive activity (Weeks and Jones), mean blood pressure in rats; format: in vivo, rat; settings: oral
Method: Exper. Therap., 104, 646 (1960). At an oral dose of 50 mg/kg in rats, there was a % decrease in mean blood pressure at 1, 3, 6 hours of 11%, 13%, and 24%, respectively.

[4] = tested on: 3',5'-Cyclic AMP phosphodiesterase (PDE) from lung; assay: 3',5'-Cyclic AMP phosphodiesterase (PDE) inhibition, rabbit lung enzyme (Fraction II, low Km); format: biochemical; settings: relative to theophylline, cAMP about 1.7 × 10^-7 M, 30° C., 10 minutes, pH 7.5
[5] = tested on: isolated guinea pig heart preparation; assay: Coronary dilation in isolated guinea pig heart preparation; settings: 10 μg/ml, preliminary
[6] = tested on: 3',5'-Cyclic AMP phosphodiesterase (PDE) from kidney; assay: 3',5'-Cyclic AMP phosphodiesterase (PDE) inhibition, rabbit kidney enzyme (Fraction II, low Km); format: biochemical; settings: relative to theophylline, cAMP about 1.7 × 10^-7 M, 30° C., 10 minutes, pH 7.5
[7] = tested on: isolated guinea pig uteri; assay: Smooth muscle relaxation of isolated guinea pig uteri; settings: 2-10 μg/ml
anesthetized dog = settings: background; cited from earlier work
[8] = tested on: isolated guinea pig heart preparation; assay: Inotropic effect in isolated guinea pig heart preparation; settings: 10 μg/ml
rats [9] = assay: Anti-inflammatory test (Winter et al.), foot volume in rats; format: in vivo, rat; settings: oral, 100 mg/kg
Description: Following the procedure of C. A. Winter, et al as described in the Proc. Exper.

Structure (SMILES): CCCc1cc(CCC)n2nc(SCc3ccccc3)nc2n1 [Compound 41, 2-benzylthio-5,7-di-n-propyl-1,2,4-triazolo[1,5a]pyrimidine]
- % change of cardiac output (anesthetized dogs): +23%
- % change of heart rate (anesthetized dogs): -4.2%
- % change of stroke volume (anesthetized dogs): +27%

Structure (SMILES): Cc1cc(C)n2nc(SCc3c(C)ccc4ccccc34)nc2n1 [Compound 17]
- Solubility [1]: Insoluble

Structure (SMILES): CCCc1cc(CCC)n2nc(SCc3ccc(C(=O)O)cc3)nc2n1 [Compound 44, 5,7-di-n-propyl-2-(4-carboxybenzyl)thio-1,2,4-triazolo[1,5a]pyrimidine]
- % change of cardiac output (anesthetized dogs): +18%
- % change of heart rate (anesthetized dogs): +0.2%
- % change of stroke volume (anesthetized dogs): +18%

Structure (SMILES): CCCc1cc(CCC)n2nc(SCc3ccc(C)cc3)nc2n1 [Compound 43, 5,7-di-n-propyl-2-(4-methylbenzyl)thio-1,2,4-triazolo[1,5a]pyrimidine]
- % change of cardiac output (anesthetized dogs): +34.3%
- % change of heart rate (anesthetized dogs): -2.8%
- % change of stroke volume (anesthetized dogs): +3.8%

Structure (SMILES): CCCc1cc(CCC)n2nc(SCc3ccncc3)nc2n1 [Compound 45, 5,7-di-n-propyl-2-(4-picolyl)thio-1,2,4-triazolo[1,5a]pyrimidine]
- % change of cardiac output (anesthetized dogs): +27%
- % change of heart rate (anesthetized dogs): -8.1%
- % change of stroke volume (anesthetized dogs): +39%

Structure (SMILES): Cn1c(=O)c2[nH]cnc2n(C)c1=O [Theophylline]
- phosphodiesterase inhibition [2]: does not selectively inhibit phosphodiesterase; also recorded: not as potent as a phosphodiesterase inhibitor as is desired

Structure (SMILES): CCOC(=O)c1cnc2nc(SCc3ccccc3)nn2c1NCc1ccccc1 [Compound 37]
- Solubility [1]: Insoluble

Structure (SMILES): Cc1cc(C)n2nc(SCc3cc4c(cc3Cl)OCO4)nc2n1 [Compound 16]
- Solubility [1]: Insoluble

Structure (SMILES): CCCc1cc(CCC)n2nc(S(=O)(=O)Cc3ccccc3)nc2n1 [Compound 47, 2-benzylsulfonyl-5,7-di-n-propyl-1,2,4-triazolo[1,5a]pyrimidine]
- % change of cardiac output (anesthetized dogs): +35.6%
- % change of heart rate (anesthetized dogs): +0.2%
- % change of stroke volume (anesthetized dogs): +34.7%

Structure (SMILES): Cc1cc(NN)n2nc(SCc3ccccc3)nc2n1 [Compound 32, 2-benzylthio-7-hydrazino-5-methyl-s-triazolo[1,5a]pyrimidine]
- Solubility [1]: Insoluble
- hypotensive activity (rats [3]; 25 mg/kg): significant hypotensive activity
- hypotensive activity (rats [3]; 50 mg/kg): significant hypotensive activity
- % decrease in mean blood pressure at 1 hour (rats [3]; 50 mg/kg, 1 hour): 11%
- % decrease in mean blood pressure at 3 hours (rats [3]; 50 mg/kg, 3 hours): 13%
- % decrease in mean blood pressure at 6 hours (rats [3]; 50 mg/kg, 6 hours): 24%

Structure (SMILES): CCCNc1c(C(=O)OCC)cnc2nc(SCc3ccccc3)nn12 [Compound 39, 2-benzylthio-6-carbethoxy-7-n-propylamino-s-triazolo[1,5a]pyrimidine]
- PDE Lung; α (I50 theophylline / I50 compound) [4]: 21.0
- coronary dilation [5]: coronary dialation
- PDE Kidney; α (I50 theophylline / I50 compound) [6]: 7.0

Structure (SMILES): CCOC(=O)c1cnc2nc(SCc3ccccc3)nn2c1S [Compound 40, 2-BENZYLTHIO-6-CARBETHOXY-7-MERCAPTO-s-TRIAZOLO[1,5a] PYRIMIDINE]
- Solubility [1]: Insoluble

Structure (SMILES): CCN(CC)c1cc(C)nc2nc(SCc3ccccc3)nn12 [Compound 27, 2-benzylthio-7-diethylamino-5-methyl-s-triazole[1,5a]pyrimidine]
- PDE Lung; α (I50 theophylline / I50 compound) [4]: 4.20
- coronary dilation [5]: coronary dialation
- smooth muscle relaxation [7]: smooth muscle relaxants
- PDE Kidney; α (I50 theophylline / I50 compound) [6]: 2.30

Structure (SMILES): Cc1cc(C)n2ncc(Br)c2n1 [3-bromo-5,7-dimethylpyrazolo[1,5a]pyrimidine]
- positive inotropic effect (anesthetized dog): positive inotropic effect
- phosphodiesterase inhibition [2]: significantly more active than theophylline against various phosphodiesterase enzymes

Structure (SMILES): CCCc1cc(CCC)n2nc(S(=O)(=O)Cc3ccc(C)cc3)nc2n1 [Compound 48, 5,7-di-n-propyl-2-(4-methylbenzyl)sulfonyl-1,2,4-triazolo[1,5a]pyrimidine]
- % change of cardiac output (anesthetized dogs): +16.4%
- % change of heart rate (anesthetized dogs): -14.3%
- % change of stroke volume (anesthetized dogs): +36.1%

Structure (SMILES): Cc1cc(C)n2nc(SCc3ccccc3)nc2n1 [Compound 3, 2-benzylthio-5,7-dimethyl-s-triazolo[1,5a]pyrimidine]
- PDE Lung; α (I50 theophylline / I50 compound) [4]: 2.50
- PDE Kidney; α (I50 theophylline / I50 compound) [6]: 2.10
- % change of cardiac output (anesthetized dogs): -1%
- % change of heart rate (anesthetized dogs): -7%
- % change of stroke volume (anesthetized dogs): -7%

Structure (SMILES): CC(=O)Cc1cc(C)nc2nc(SCc3ccccc3)nn12 [Compound 51, 2-BENZYLTHIO-5-METHYL-7-(2-ACETONYL)-1,2,4-TRIAZOLO [1,5a]PYRIMIDINE]
- % change of cardiac output (anesthetized dogs): +46.2%
- % change of heart rate (anesthetized dogs): +3.3%
- % change of stroke volume (anesthetized dogs): +42.0%

Structure (SMILES): Cc1cc(N(CCO)CCO)n2nc(SCc3ccccc3)nc2n1 [Compound 29, 2-benzylthio-7-[bis(β-hydroxyethyl)amino]-5-methyl-s-triazolo[1,5a]pyrimidine]
- PDE Lung; α (I50 theophylline / I50 compound) [4]: 2.10
- coronary dilation [5]: coronary dialation
- smooth muscle relaxation [7]: smooth muscle relaxants
- PDE Kidney; α (I50 theophylline / I50 compound) [6]: 2.30
- positive inotropic effect [8]: positive inotropic effect

Structure (SMILES): Cc1cc(O)n2nc(SCc3ccccc3)nc2n1 [Compound 24, 2-benzylthio-7-hydroxy-5-methyl-s-triazolo[1,5a]pyrimidine]
- PDE Lung; α (I50 theophylline / I50 compound) [4]: 0.75
- coronary dilation [5]: coronary dialation
- smooth muscle relaxation [7]: smooth muscle relaxants
- PDE Kidney; α (I50 theophylline / I50 compound) [6]: 0.75
- anti-inflammatory activity (rats [9]): significant activity
- inhibition of foot volume (rats [9]): 43%

Structure (SMILES): CCOC(=O)c1cnc2nc(SCc3ccccc3)nn2c1Cl [Compound 35, 2-benzylthio-6-carbethoxy-7-chloro-s-triazolo[1,5a]pyrimidine]
- Solubility [1]: Insoluble

Structure (SMILES): Cc1cc(NN(C)C)n2nc(SCc3ccccc3)nc2n1 [Compound 33]
- PDE Lung; α (I50 theophylline / I50 compound) [4]: 5.30
- PDE Kidney; α (I50 theophylline / I50 compound) [6]: 8.00

Structure (SMILES): CCOC(=O)c1cnc2nc(SCc3ccccc3)nn2c1NCCO [Compound 38]
- Solubility [1]: Insoluble

Structure (SMILES): Cc1cc(N2CCOCC2)n2nc(SCc3ccccc3)nc2n1 [Compound 31]
- PDE Lung; α (I50 theophylline / I50 compound) [4]: 7.70
- PDE Kidney; α (I50 theophylline / I50 compound) [6]: 4.80

Structure (SMILES): CCCc1cc(CCC)n2nc(SCc3cccnc3)nc2n1 [Compound 46, 5,7-di-n-propyl-2-(3-picolyl)thio-1,2,4-triazolo[1,5a]pyrimidine]
- % change of cardiac output (anesthetized dogs): +20%
- % change of heart rate (anesthetized dogs): -10.9%
- % change of stroke volume (anesthetized dogs): +35%

Structure (SMILES): Cc1cc(Cl)n2nc(SCc3ccccc3)nc2n1 [Compound 25, 2-benzylthio-7-chloro-5-methyl-s-triazolo[1,5a]pyrimidine]
- PDE Lung; α (I50 theophylline / I50 compound) [4]: 4.00
- PDE Kidney; α (I50 theophylline / I50 compound) [6]: 1.40

From patent publication US4036840A, “2-Substituted-s-triazolo[1,5a]pyrimidines” (ICN Pharmaceuticals, priority 1975, dated 1977)
